Literature values, collected in patent US8691277B2, “Long acting sustained-release formulation containing dopamine receptor agonist and the preparation method thereof” (Shandong Luye Pharmaceutical Co., Ltd., priority 2004, dated 2014).

Legend:
[1] = in vivo
[2] = in vivo, po

SMILES	half-life [1]	bioavailability [2]
CCCN[C@H]1CCc2nc(N)sc2C1 [pramipexole]	only a couple of hours	–
CCCN(CCc1cccs1)[C@H]1CCc2c(O)cccc2C1 [rotigotine]	only a couple of hours	1-5%
